# Data reported in patent US20060069132A1, “Azolecarboxamide herbicides” (priority 2004, published 2006).
# Legend:
# corn = assay: Test C pre-/postemergence herbicide test; type: in vivo, Zea mays; details: preemergence
# How it was run: (§1)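 Preemergence: seeds planted and treated with compound in non-phytotoxic solvent with surfactant; postemergence: plants at 2 to 18 cm (1- to 4-leaf stage) sprayed likewise. Kept in greenhouse 12 to 14 days, then visually rated against controls, 0 (no effect) to 100 (complete control).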
# barnyardgrass = assay: Test C flooded paddy test; type: in vivo, Echinochloa crus-galli; details: for Plant response rating, Barnyardgrass: 500 g ai/ha, visual rating after 12 to 14 days
# How it was run: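 Ratings (0 = no effect, 100 = complete control) come from visual comparison with untreated plants after 12 to 14 days in the greenhouse. Treatment was postemergence at the 1- to 4-leaf stage (2–18 cm), or at the 2-leaf stage for the flooded paddy barnyardgrass.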
# common ragweed = assay: Test C pre-/postemergence herbicide test; type: in vivo, Ambrosia elatior; parameters: key to Plant response rating, Ragweed: 0 = no effect, 100 = complete control; details: preemergence
# How it was run: as §1
# cocklebur = assay: Test C pre-/postemergence herbicide test; type: in vivo, Xanthium strumarium; details: for Plant response rating, Cocklebur: preemergence; for Cocklebur plant response rating: Preemergence, 500 g ai/ha, scale 0 to 100, 0 no effect, 100 complete control
# How it was run: as §1
# eastern black nightshade = assay: Test C pre-/postemergence herbicide test; type: in vivo, Solanum ptycanthum; details: preemergence
# How it was run: as §1
# [1] = tested on: common (oilseed) sunflower; assay: Test C pre-/postemergence herbicide test; type: in vivo, Helianthus annuus; details: preemergence
# How it was run: as §1
# large crabgrass = assay: Test C pre-/postemergence herbicide test; type: in vivo, Digitaria sanguinalis; details: preemergence
# How it was run: as §1
# ducksalad = assay: Test C flooded paddy test; type: in vivo, Heteranthera limosa; details: for Plant response rating, Ducksalad: 500 g ai/ha, visual rating after 12 to 14 days
# pigweed = assay: Test C pre-/postemergence herbicide test; type: in vivo, Amaranthus retroflexus; details: preemergence
# How it was run: as §1
# velvetleaf = assay: Test C pre-/postemergence herbicide test; type: in vivo, Abutilon theophrasti; details: preemergence
# How it was run: as §1
# [2] = tested on: smallflower umbrella sedge; assay: Test C flooded paddy test; type: in vivo, Cyperus difformis; details: for Plant response rating, Sedge, Umbrella: 500 g ai/ha, visual rating after 12 to 14 days
# lambsquarters = assay: Test C pre-/postemergence herbicide test; type: in vivo, Chenopodium album; details: preemergence
# How it was run: as §1
# [3] = 125 g ai/ha, scale 0 (no effect) to 100 (complete control), visual, 12 to 14 days
# [4] = 500 g ai/ha, scale 0 to 100 (0 no effect, 100 complete control), visual, 12 to 14 days
# [5] = 62 g ai/ha, scale 0 to 100 (0 no effect, 100 complete control)
# [6] = 125 g ai/ha, scale 0 to 100 (0 no effect, 100 complete control)
# [7] = 250 g ai/ha, scale of 0 to 100, 0 is no effect, 100 is complete control
# [8] = scale 0 to 100 (0 no effect, 100 complete control)
compound,measurement,setting,value
CCn1nc(C2(C)CC2)cc1C(=O)Nc1cc(C(=O)N(C)C)ccc1F [Compound 299],"Plant response rating, Corn",corn; [3],25
same,"Plant response rating, Corn","corn; 250 g ai/ha, scale 0-100",60
same,"Plant response rating, Corn",corn; [4],60
same,Barnyardgrass plant response rating,barnyardgrass; [5],85
same,Barnyardgrass plant response rating,barnyardgrass; [6],85
same,Barnyardgrass plant response rating,barnyardgrass; [7],95
same,"Plant response rating, Barnyardgrass",barnyardgrass; [8],95
same,"Plant response rating, Ragweed","common ragweed; 62 g ai/ha, scale 0 to 100",100
same,"Plant response rating, Ragweed","common ragweed; 250 g ai/ha, scale 0-100",100
same,"Plant response rating, Ragweed",common ragweed; [4],100
same,"Plant response rating, Cocklebur","cocklebur; 62 g ai/ha, scale 0 to 100",0
same,"Plant response rating, Cocklebur",cocklebur; [3],40
same,"Plant response rating, Cocklebur","cocklebur; 250 g ai/ha, scale 0-100",80
same,Cocklebur plant response rating,cocklebur,95
same,"Plant response rating, Nightshade","eastern black nightshade; 62 g ai/ha, scale 0 to 100",100
same,"Plant response rating, Nightshade",eastern black nightshade; [3],100
same,"Plant response rating, Nightshade","eastern black nightshade; 250 g ai/ha, scale 0-100",100
same,"Plant response rating, Nightshade",eastern black nightshade; [4],100
same,"Plant response rating, Sunflower","[1]; 62 g ai/ha, scale 0 to 100",10
same,"Plant response rating, Sunflower","[1]; 250 g ai/ha, scale 0-100",100
same,"Plant response rating, Sunflower",[1]; [4],100
same,"Plant response rating, Crabgrass, Large","large crabgrass; 62 g ai/ha, scale 0 to 100",100
same,"Plant response rating, Crabgrass, Large",large crabgrass; [3],100
same,"Plant response rating, Crabgrass, Large","large crabgrass; 250 g ai/ha, scale 0-100",100
same,"Plant response rating, Crabgrass, Large",large crabgrass; [4],100
same,Ducksalad plant response rating,"ducksalad; 62 g ai/ha, scale 0 to 100",95
same,Ducksalad plant response rating,ducksalad; [6],95
same,Ducksalad plant response rating,ducksalad; [7],95
same,"Plant response rating, Ducksalad",ducksalad; [8],95
same,"Plant response rating, Pigweed","pigweed; 62 g ai/ha, scale 0 to 100",100
same,"Plant response rating, Pigweed",pigweed; [3],100
same,"Plant response rating, Pigweed","pigweed; 250 g ai/ha, scale 0-100",100
same,"Plant response rating, Pigweed",pigweed; [4],100
same,"Plant response rating, Velvetleaf","velvetleaf; 62 g ai/ha, scale 0 to 100",5
same,"Plant response rating, Velvetleaf","velvetleaf; 250 g ai/ha, scale 0-100",100
same,"Plant response rating, Velvetleaf",velvetleaf; [4],100
same,"Sedge, Umbrella plant response rating","[2]; 62 g ai/ha, scale 0 to 100",85
same,"Sedge, Umbrella plant response rating",[2]; [6],95
same,"Sedge, Umbrella plant response rating",[2]; [7],95
same,"Plant response rating, Sedge, Umbrella",[2]; [8],95
same,"Plant response rating, Lambsquarters","lambsquarters; 62 g ai/ha, scale 0 to 100",100
same,"Plant response rating, Lambsquarters",lambsquarters; [3],100
same,"Plant response rating, Lambsquarters","lambsquarters; 250 g ai/ha, scale 0-100",100
same,"Plant response rating, Lambsquarters",lambsquarters; [4],100
CCn1nc(C(C)(C)C)cc1C(=S)Nc1cc(C(=S)N(C)C)ccc1F [Compound 305],"Plant response rating, Corn","corn; 62 g ai/ha, scale 0 to 100",0
same,"Plant response rating, Corn",corn; [3],40
same,"Plant response rating, Corn","corn; 250 g ai/ha, scale 0-100",45
same,"Plant response rating, Corn",corn; [4],45
same,Barnyardgrass plant response rating,barnyardgrass; [5],70
same,Barnyardgrass plant response rating,barnyardgrass; [6],85
same,Barnyardgrass plant response rating,barnyardgrass; [7],95
same,"Plant response rating, Barnyardgrass",barnyardgrass; [8],100
same,"Plant response rating, Ragweed","common ragweed; 62 g ai/ha, scale 0 to 100",10
same,"Plant response rating, Ragweed","common ragweed; 250 g ai/ha, scale 0-100",85
same,"Plant response rating, Ragweed",common ragweed; [4],100
same,"Plant response rating, Cocklebur","cocklebur; 62 g ai/ha, scale 0 to 100",10
same,"Plant response rating, Cocklebur",cocklebur; [3],15
same,"Plant response rating, Cocklebur","cocklebur; 250 g ai/ha, scale 0-100",65
same,Cocklebur plant response rating,cocklebur,90
same,"Plant response rating, Nightshade","eastern black nightshade; 62 g ai/ha, scale 0 to 100",60
same,"Plant response rating, Nightshade",eastern black nightshade; [3],90
same,"Plant response rating, Nightshade","eastern black nightshade; 250 g ai/ha, scale 0-100",100
same,"Plant response rating, Nightshade",eastern black nightshade; [4],100
same,"Plant response rating, Sunflower","[1]; 62 g ai/ha, scale 0 to 100",0
same,"Plant response rating, Sunflower","[1]; 250 g ai/ha, scale 0-100",0
same,"Plant response rating, Sunflower",[1]; [4],50
same,"Plant response rating, Crabgrass, Large","large crabgrass; 62 g ai/ha, scale 0 to 100",70
same,"Plant response rating, Crabgrass, Large",large crabgrass; [3],100
same,"Plant response rating, Crabgrass, Large","large crabgrass; 250 g ai/ha, scale 0-100",100
same,"Plant response rating, Crabgrass, Large",large crabgrass; [4],100
same,Ducksalad plant response rating,"ducksalad; 62 g ai/ha, scale 0 to 100",0
same,Ducksalad plant response rating,ducksalad; [6],0
same,Ducksalad plant response rating,ducksalad; [7],0
same,"Plant response rating, Ducksalad",ducksalad; [8],0
same,"Plant response rating, Pigweed","pigweed; 62 g ai/ha, scale 0 to 100",100
same,"Plant response rating, Pigweed",pigweed; [3],100
same,"Plant response rating, Pigweed","pigweed; 250 g ai/ha, scale 0-100",100
same,"Plant response rating, Pigweed",pigweed; [4],100
same,"Plant response rating, Velvetleaf","velvetleaf; 62 g ai/ha, scale 0 to 100",40
same,"Plant response rating, Velvetleaf","velvetleaf; 250 g ai/ha, scale 0-100",100
same,"Plant response rating, Velvetleaf",velvetleaf; [4],100
same,"Sedge, Umbrella plant response rating","[2]; 62 g ai/ha, scale 0 to 100",85
same,"Sedge, Umbrella plant response rating",[2]; [6],90
same,"Sedge, Umbrella plant response rating",[2]; [7],90
same,"Plant response rating, Sedge, Umbrella",[2]; [8],90
same,"Plant response rating, Lambsquarters","lambsquarters; 62 g ai/ha, scale 0 to 100",100
same,"Plant response rating, Lambsquarters",lambsquarters; [3],100
same,"Plant response rating, Lambsquarters","lambsquarters; 250 g ai/ha, scale 0-100",100
same,"Plant response rating, Lambsquarters",lambsquarters; [4],100
CCNC(=O)c1cccc(NC(=O)c2cc(C3(C)CC3)nn2CC)c1 [Compound 306],"Plant response rating, Corn","corn; 62 g ai/ha, scale 0 to 100",5
same,"Plant response rating, Corn",corn; [3],10
same,"Plant response rating, Corn","corn; 250 g ai/ha, scale 0-100",20
same,"Plant response rating, Corn",corn; [4],50
same,Barnyardgrass plant response rating,barnyardgrass; [5],0
same,Barnyardgrass plant response rating,barnyardgrass; [6],45
same,Barnyardgrass plant response rating,barnyardgrass; [7],55
same,"Plant response rating, Barnyardgrass",barnyardgrass; [8],70
same,"Plant response rating, Ragweed","common ragweed; 62 g ai/ha, scale 0 to 100",0
same,"Plant response rating, Ragweed",common ragweed; [4],100
same,"Plant response rating, Cocklebur","cocklebur; 62 g ai/ha, scale 0 to 100",0
same,"Plant response rating, Cocklebur",cocklebur; [3],0
same,"Plant response rating, Cocklebur","cocklebur; 250 g ai/ha, scale 0-100",0
same,Cocklebur plant response rating,cocklebur,5
same,"Plant response rating, Nightshade","eastern black nightshade; 62 g ai/ha, scale 0 to 100",90
same,"Plant response rating, Nightshade",eastern black nightshade; [3],95
same,"Plant response rating, Nightshade","eastern black nightshade; 250 g ai/ha, scale 0-100",100
same,"Plant response rating, Nightshade",eastern black nightshade; [4],100
same,"Plant response rating, Sunflower","[1]; 62 g ai/ha, scale 0 to 100",0
same,"Plant response rating, Sunflower","[1]; 250 g ai/ha, scale 0-100",0
same,"Plant response rating, Sunflower",[1]; [4],0
same,"Plant response rating, Crabgrass, Large","large crabgrass; 62 g ai/ha, scale 0 to 100",100
same,"Plant response rating, Crabgrass, Large",large crabgrass; [3],100
same,"Plant response rating, Crabgrass, Large","large crabgrass; 250 g ai/ha, scale 0-100",100
same,"Plant response rating, Crabgrass, Large",large crabgrass; [4],100
same,Ducksalad plant response rating,"ducksalad; 62 g ai/ha, scale 0 to 100",50
same,Ducksalad plant response rating,ducksalad; [6],80
same,Ducksalad plant response rating,ducksalad; [7],80
same,"Plant response rating, Ducksalad",ducksalad; [8],90
same,"Plant response rating, Pigweed","pigweed; 62 g ai/ha, scale 0 to 100",100
same,"Plant response rating, Pigweed",pigweed; [3],100
same,"Plant response rating, Pigweed","pigweed; 250 g ai/ha, scale 0-100",100
same,"Plant response rating, Pigweed",pigweed; [4],100
same,"Plant response rating, Velvetleaf","velvetleaf; 62 g ai/ha, scale 0 to 100",5
same,"Plant response rating, Velvetleaf",velvetleaf; [4],10
same,"Sedge, Umbrella plant response rating","[2]; 62 g ai/ha, scale 0 to 100",85
same,"Sedge, Umbrella plant response rating",[2]; [6],90
same,"Sedge, Umbrella plant response rating",[2]; [7],90
same,"Plant response rating, Sedge, Umbrella",[2]; [8],90
same,"Plant response rating, Lambsquarters","lambsquarters; 62 g ai/ha, scale 0 to 100",100
same,"Plant response rating, Lambsquarters",lambsquarters; [3],100
same,"Plant response rating, Lambsquarters","lambsquarters; 250 g ai/ha, scale 0-100",100
same,"Plant response rating, Lambsquarters",lambsquarters; [4],100
